From patent US20090018134A1, “Compounds - 945” (AstraZeneca AB, priority 2007, published 2009)

biological target: T1, mTOR (Homo sapiens, UniProt P42345); test: In Vitro mTOR Kinase Assay (Echo), Test (a)(ii); type: biochemical; conditions: table of enzyme assay Test (a)(ii); read-out: Test (a)(ii) IC50
T1 construct: FLAG; made in house
Summary of the method: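 FLAG-tagged human mTOR truncation (residues 1362-2549) expressed in HEK293 cells and FLAG-purified. Compounds dispensed acoustically, reaction 2 h at room temperature, stopped with EDTA. Phosphorylation of biotinylated peptide detected by AlphaScreen with anti-p70 S6K (T389) antibody overnight; IC50 reported.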

T1 sequence (P42345 1362-2549): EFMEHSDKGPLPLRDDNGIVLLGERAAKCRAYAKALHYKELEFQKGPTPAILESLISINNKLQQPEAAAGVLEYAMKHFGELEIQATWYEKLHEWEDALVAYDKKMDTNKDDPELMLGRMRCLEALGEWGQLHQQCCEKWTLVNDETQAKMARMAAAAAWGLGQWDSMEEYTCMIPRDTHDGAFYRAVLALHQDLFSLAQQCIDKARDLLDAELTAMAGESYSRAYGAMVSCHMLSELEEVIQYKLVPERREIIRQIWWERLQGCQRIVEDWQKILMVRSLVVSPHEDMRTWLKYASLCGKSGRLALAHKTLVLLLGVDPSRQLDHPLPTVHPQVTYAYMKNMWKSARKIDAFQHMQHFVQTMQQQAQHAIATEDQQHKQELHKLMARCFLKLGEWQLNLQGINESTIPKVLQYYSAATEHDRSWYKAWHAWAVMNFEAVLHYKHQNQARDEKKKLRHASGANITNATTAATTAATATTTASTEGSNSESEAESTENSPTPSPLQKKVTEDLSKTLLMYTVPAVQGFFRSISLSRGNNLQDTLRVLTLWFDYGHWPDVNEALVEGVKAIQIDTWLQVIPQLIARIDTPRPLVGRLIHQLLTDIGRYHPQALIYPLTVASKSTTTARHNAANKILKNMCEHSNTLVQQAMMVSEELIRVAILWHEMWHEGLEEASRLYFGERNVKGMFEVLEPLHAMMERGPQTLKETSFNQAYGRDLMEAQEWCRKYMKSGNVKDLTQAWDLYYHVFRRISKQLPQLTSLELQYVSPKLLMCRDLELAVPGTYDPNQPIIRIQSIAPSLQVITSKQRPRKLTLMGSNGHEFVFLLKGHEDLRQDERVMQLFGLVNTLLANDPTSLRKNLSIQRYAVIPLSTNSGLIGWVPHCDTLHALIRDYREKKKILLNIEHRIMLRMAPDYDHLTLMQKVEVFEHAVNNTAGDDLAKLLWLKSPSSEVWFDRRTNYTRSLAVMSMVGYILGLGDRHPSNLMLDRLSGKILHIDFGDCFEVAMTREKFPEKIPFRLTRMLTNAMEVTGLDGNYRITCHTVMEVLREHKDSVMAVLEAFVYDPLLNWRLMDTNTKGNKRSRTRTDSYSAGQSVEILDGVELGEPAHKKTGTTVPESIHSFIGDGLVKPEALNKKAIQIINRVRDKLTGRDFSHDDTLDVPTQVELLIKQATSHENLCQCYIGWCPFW

Compared with `C[C@H]1COCCN1c1cc(C2(S(=O)(=O)CCCO)CCC2)nc(-c2ccc(NC(=O)NCCC#N)cc2)n1` [Example 43c, 3-(2-cyanoethyl)-1-[4-[4-[1-(3-hydroxypropylsulfonyl)cyclobu-tyl]-6-[(3S)-3-methylmorpholin-4-yl]pyrimidin-2-yl]phenyl]urea], `C[C@H]1COCCN1c1cc(C2(S(=O)(=O)CCCO)CCCC2)nc(-c2ccc(NC(=O)NCCC#N)cc2)n1` [Example 43h, 3-(2-cyanoethyl)-1-[4-[4-[1-(3-hydroxypropyl-sulfonyl)cyclopen-tyl]-6-[(3S)-3-methylmorpholin-4-yl]pyrimidin-2-yl]phenyl]urea] is 4.6-fold higher in IC50: 28.8 nM for the first, 133 nM for the second.

Compared with `C[C@H]1COCCN1c1cc(C2(S(=O)(=O)CCCO)CCC2)nc(-c2ccc(NC(=O)Nc3cnn(C)c3)cc2)n1` [Example 43d, 1-[4-[4-[1-(3-hydroxypropylsulfonyl)cyclobu-tyl]-6-[(3S)-3-methylmorpholin-4-yl]pyrimidin-2-yl]phenyl]-3-(1-methylpyrazol-4-yl)urea], `C[C@H]1COCCN1c1cc(C2(S(=O)(=O)CCCO)CCC2)nc(-c2ccc(NC(=O)Nc3ccon3)cc2)n1` [Example 43m, 1-[4-[4-[1-(3-hydroxypropylsulfonyl)cyclobu-tyl]-6-[(3S)-3-methylmorpholin-4-yl]pyrimidin-2-yl]phenyl]-3-(1,2-oxazol-3-yl)urea] is 2.1-fold lower in IC50: 11 nM for the first, 5.31 nM for the second.

Going from `C[C@H]1COCCN1c1cc(C2(S(=O)(=O)CCCO)CCC2)nc(-c2ccc(NC(=O)NCc3ncc[nH]3)cc2)n1` [Example 43e, 1-[4-[4-[1-(3-hydroxypropylsulfonyl)cyclobu-tyl]-6-[(3S)-3-methylmorpholin-4-yl]pyrimidin-2-yl]phenyl]-3-(1H-imidazol-2-ylmethyl)urea] to `CCNC(=O)Nc1ccc(-c2nc(N3CCOC[C@@H]3C)cc(C3(S(=O)(=O)CCCO)CCC3)n2)cc1` [Example 43j, 1-ethyl-3-[4-[4-[1-(3-hydroxypropylsulfonyl)cyclobu-tyl]-6-[(3S)-3-methylmorpholin-4-yl]pyrimidin-2-yl]phenyl]urea], the IC50 falls from 188 nM to 12 nM (16-fold). The second is the more potent here.

`C[C@H]1COCCN1c1cc(C2(S(=O)(=O)CCCO)CCCC2)nc(-c2ccc(NC(=O)NC3CC3)cc2)n1` [Example 43f, 3-cyclopropyl-1-[4-[4-[1-(3-hydroxypropyl-sulfonyl)cyclopen-tyl]-6-[(3S)-3-methylmorpholin-4-yl]pyrimidin-2-yl]phenyl]urea] and `C[C@H]1COCCN1c1cc(C2(S(=O)(=O)CCCO)CCCC2)nc(-c2ccc(NC(=O)NCCO)cc2)n1` [Example 43g, 3-(2-hydroxyethyl)-1-[4-[4-[1-(3-hydroxypropyl-sulfonyl)cyclopen-tyl]-6-[(3S)-3-methylmorpholin-4-yl]pyrimidin-2-yl]phenyl]urea] are within 1.5-fold of each other in IC50: 39.2 nM for the first, 29 nM for the second.

Going from `C[C@H]1COCCN1c1cc(C2(S(=O)(=O)CCCO)CCCC2)nc(-c2ccc(NC(=O)NCCCO)cc2)n1` [Example 43i, 3-(3-hydroxypropyl)-1-[4-[4-[1-(3-hydroxypropyl-sulfonyl)cyclopen-tyl]-6-[(3S)-3-methylmorpholin-4-yl]pyrimidin-2-yl]phenyl]urea] to `C[C@H]1COCCN1c1cc(C2(S(=O)(=O)CCCO)CCC2)nc(-c2ccc(NC(=O)NCCCO)cc2)n1` [Example 43l, 3-(3-hydroxypropyl)-1-[4-[4-[1-(3-hydroxypropylsulfonyl)cyclobu-tyl]-6-[(3S)-3-methylmorpholin-4-yl]pyrimidin-2-yl]phenyl]urea], the IC50 falls from 102 nM to 23.6 nM (4.3-fold).

First: CCCNC(=O)Nc1ccc(-c2nc(N3CCOC[C@@H]3C)cc(C3(S(=O)(=O)CCCO)CCC3)n2)cc1 [Example 43k, 3-[4-[4-[1-(3-hydroxypropylsulfonyl)cyclobu-tyl]-6-[(3S)-3-methylmorpholin-4-yl]pyrimidin-2-yl]phenyl]-1-propylurea]
Second: C[C@H]1COCCN1c1cc(C2(S(=O)(=O)CCCO)CCC2)nc(-c2ccc(NC(=O)NCCF)cc2)n1 [Example 43n, 3-(2-fluoroethyl)-1-[4-[4-[1-(3-hydroxypropylsulfonyl)cyclobu-tyl]-6-[(3S)-3-methylmorpholin-4-yl]pyrimidin-2-yl]phenyl]urea]
The IC50 of the first is 2.2-fold higher: 25.7 nM for the first, 11.9 nM for the second. The second is the more potent here.

Compared with `C[C@H]1COCCN1c1cc(C2(S(=O)(=O)CCCO)CCC2)nc(-c2ccc(NC(=O)NCC(F)F)cc2)n1` [Example 43o, 3-(2,2-difluoroethyl)-1-[4-[4-[1-(3-hydroxypropylsulfonyl)cyclobu-tyl]-6-[(3S)-3-methylmorpholin-4-yl]pyrimidin-2-yl]phenyl]urea], `C[C@@H](CO)NC(=O)Nc1ccc(-c2nc(N3CCOC[C@@H]3C)cc(C3(S(=O)(=O)CCCO)CCC3)n2)cc1` [Example 43q, 3-[(2S)-1-hydroxypropan-2-yl]-1-[4-[4-[1-(3-hydroxypropylsulfonyl)cyclobu-tyl]-6-[(3S)-3-methylmorpholin-4-yl]pyrimidin-2-yl]phenyl]urea] is 1.8-fold higher in IC50: 15.7 nM for the first, 28 nM for the second.

`C[C@H]1COCCN1c1cc(C2(S(=O)(=O)CCCO)CCC2)nc(-c2ccc(NC(=O)NC(C)(C)CO)cc2)n1` [Example 43p, 3-(1-hydroxy-2-methylpropan-2-yl)-1-[4-[4-[1-(3-hydroxypropylsulfonyl)cyclobu-tyl]-6-[(3S)-3-methylmorpholin-4-yl]pyrimidin-2-yl]phenyl]urea] and `C[C@H](CO)NC(=O)Nc1ccc(-c2nc(N3CCOC[C@@H]3C)cc(C3(S(=O)(=O)CCCO)CCC3)n2)cc1` [Example 43r, 3-[(2R)-1-hydroxypropan-2-yl]-1-[4-[4-[1-(3-hydroxypropylsulfonyl)cyclobu-tyl]-6-[(3S)-3-methylmorpholin-4-yl]pyrimidin-2-yl]phenyl]urea] are within 1.5-fold of each other in IC50: 55.5 nM for the first, 57.7 nM for the second.

`C[C@H]1COCCN1c1cc(C2(S(=O)(=O)CCCO)CCC2)nc(-c2ccc(NC(=O)Nc3ncns3)cc2)n1` [Example 43s, 1-[4-[4-[1-(3-hydroxypropylsulfonyl)cyclobu-tyl]-6-[(3S)-3-methylmorpholin-4-yl]pyrimidin-2-yl]phenyl]-3-(1,2,4-thiadiazol-5-yl)urea] and `C[C@H]1COCCN1c1cc(C2(S(=O)(=O)CCCO)CCC2)nc(-c2ccc(NC(=O)Nc3nccs3)cc2)n1` [Example 43t, 1-[4-[4-[1-(3-hydroxypropylsulfonyl)cyclobu-tyl]-6-[(3S)-3-methylmorpholin-4-yl]pyrimdiin-2-yl]phenyl]-3-(1,3-thiazol-2-yl)urea] are within 1.5-fold of each other in IC50: 6.29 nM for the first, 5.45 nM for the second.

Going from `CC(=O)NCCS(=O)(=O)C1(c2cc(N3CCOC[C@@H]3C)nc(-c3ccc(NC(=O)NC4CC4)cc3)n2)CC1` [Example 44, N-[2-[1-[2-[4-(Cyclopropylcarbamoylamino)phenyl]-6-[(3S)-3-methylmorpholin-4-yl]pyrimidin-4-yl]cyclopropyl]sulfonylethyl]acetamide] to `CNC(=O)Nc1ccc(-c2nc(N3CCOC[C@@H]3C)cc(C3(S(=O)(=O)CCOC)CC3)n2)cc1` [Example 51, 1-[4-[4-[1-(2-Methoxyethylsulfonyl)cyclopropyl]-6-[(3S)-3-methylmorpholin-4-yl]pyrimidin-2-yl]phenyl]-3-methylurea], the IC50 falls from 23.4 nM to 3.32 nM (7-fold).

Going from `NC(=O)CS(=O)(=O)C1(c2cc(N3CCOCC3)nc(-c3ccc(NC(=O)NC4CC4)cc3)n2)CC1` [Example 46, 2-[1-[2-[4-(Cyclopropylcarbamoylamino)phenyl]-6-morpholin-4-ylpyrimidin-4-yl]cyclopropyl]sulfonylacetamide] to `CNC(=O)CS(=O)(=O)C1(c2cc(N3CCOCC3)nc(-c3ccc(NC(=O)NC4CC4)cc3)n2)CC1` [Example 46a], the IC50 rises from 4.56 nM to 12.6 nM (2.8-fold). The first is the more potent here.

First: O=C(Nc1ccc(-c2nc(N3CCOCC3)cc(C3(S(=O)(=O)CCO)CC3)n2)cc1)NC1CC1 [Example 47, 3-Cyclopropyl-1-[4-[4-[1-(2-hydroxyethylsulfonyl)cyclopropyl]-6-morpholin-4-ylpyrimidin-2-yl]phenyl]urea]
Second: CNC(=O)Nc1ccc(-c2nc(N3CCOCC3)cc(C3(S(=O)(=O)CCO)CC3)n2)cc1 [Example 47a, 1-[4-[4-[1-(2-hydroxyethylsulfonyl)cyclopropyl]-6-morpholin-4-ylpyrimidin-2-yl]phenyl]-3-methylurea]
The IC50 of the first is 2.9-fold higher: 15.5 nM for the first, 5.4 nM for the second. The second is the more potent here.

`CCNC(=O)Nc1ccc(-c2nc(N3CCOCC3)cc(C3(S(=O)(=O)CCO)CC3)n2)cc1` [Example 47b, 3-ethyl-1-[4-[4-[1-(2-hydroxyethylsulfonyl)cyclopropyl]-6-morpholin-4-ylpyrimidin-2-yl]phenyl]urea] and `CNC(=O)Nc1ccc(-c2nc(N3CCOC[C@@H]3C)cc(C3(S(=O)(=O)c4cccnc4C(=O)N(C)C)CC3)n2)cc1` [Example 50, N,N-Dimethyl-3-[1-[2-[4-(methylcarbamoylamino)phenyl]-6-[(3S)-3-methylmorpholin-4-yl]pyrimidin-4-yl]cyclopropyl]sulfonylpyridine-2-carboxamide] are within 1.5-fold of each other in IC50: 14.9 nM for the first, 10.4 nM for the second.

`CNC(=O)Nc1ccc(-c2nc(N3CCOC[C@@H]3C)cc(C3(S(=O)(=O)c4ccc(C(=O)N(C)C)cn4)CC3)n2)cc1` [Example 49, N,N-Dimethyl-6-[1-[2-[4-(methylcarbamoylamino)phenyl]-6-[(3S)-3-methylmorpholin-4-yl]pyrimidin-4-yl]cyclopropyl]sulfonylpyridine-3-carboxamide] and `C[C@H]1COCCN1c1cc(C2(S(=O)(=O)c3ccc(C(=O)N(C)C)cn3)CC2)nc(-c2ccc(NC(=O)NC3CC3)cc2)n1` [Example 49a] are within 1.5-fold of each other in IC50: 1.87 nM for the first, 2.67 nM for the second.

Going from `C[C@H]1COCCN1c1cc(C2(S(=O)(=O)c3cccnc3C(=O)N(C)C)CC2)nc(-c2ccc(NC(=O)NC3CC3)cc2)n1` [Example 50a] to `C[C@H]1COCCN1c1cc(C2(S(C)(=O)=O)CC2)nc(-c2ccc(NC(=O)NC3CC3)c(F)c2)n1` [Example 52, 3-cyclopropyl-1-[2-fluoro-4-[4-[(3S)-3-methylmorpholin-4-yl]-6-(1-methylsulfonylcyclopropyl)pyrimidin-2-yl]phenyl]urea], the IC50 rises from 7.94 nM to 18.4 nM (2.3-fold). The first is the more potent here.

With `CNC(=O)Nc1ccc(-c2nc(N3CCOC[C@@H]3C)cc(C3(S(C)(=O)=O)CC3)n2)cc1F` [Example 52a, 1-[2-fluoro-4-[4-[(3S)-3-methylmorpholin-4-yl]-6-(1-methylsulfonylcyclopropyl)pyrimidin-2-yl]phenyl]-3-methylurea] the IC50 was 10.3 nM.
